In patent publication US6339045B1, “N-(unsubstituted or substituted)-4-substituted-6-(unsubstituted or substituted)phenoxy-2-pyridinecarboxamides or thiocarboxamides, processes for producing the same, and herbicides” (Kureha Kagaku Kogyo Kabushiki Kaisha, priority 1995, dated 2002):

Experiments:
Test in all cases: Herbicidal effect by foliage and soil treatment
Format in all cases: in vivo
Conditions in all cases: 10 g ai/10a, evaluated after 14 days
[1] = test system: velvetleaf (Abutilon theophrasti)
Outline: (§1)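 Post-emergence spray, cotyledon to bifoliate stage; Tween 20/water vehicle, fixed dose per area; greenhouse 19–25 °C; 14 d; visual growth rating vs untreated.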

[2] = test system: field bindweed (Convolvulus arvensis)
Outline: as §1

[3] = test system: redroot pigweed (Amaranthus retroflexus)
Outline: as §1

[4] = test system: sicklepod (Cassia obtusifolia)
Outline: as §1

[5] = test system: cleavers (Galium aparine)
Outline: as §1

[6] = test system: ivyleafspeedwell (Veronica hederaefolia)
Outline: as §1

[7] = test system: black nightshade (Solanum nigrum)
Outline: as §1

[8] = test system: common blackjack (Bidens pilosa)
Outline: as §1

[9] = test system: wild chamomile (Matricaria chamomilla)
Outline: as §1

[10] = test system: kediock (Sinapis arvensis)
Outline: as §1

[11] = test system: common chickweed (Stellaria media)
Outline: as §1

SMILES | herbicidal activity rating, AT (Abutilon theophrasti) [1] | herbicidal activity rating, CA (Convolvulus arvensis) [2] | herbicidal activity rating, AR (Amaranthus retroflexus) [3] | herbicidal activity rating, CO (Cassia obtusifolia) [4] | herbicidal activity rating, GA (Galium aparine) [5] | herbicidal activity rating, VH (Veronica hederaefolia) [6] | herbicidal activity rating, SN (Solanum nigrum) [7] | herbicidal activity rating, BP (Bidens pilosa) [8] | herbicidal activity rating, MC (Matricaria chamomilla) [9] | herbicidal activity rating, SA (Sinapis arvensis) [10] | herbicidal activity rating, SM (Stellaria media) [11]
CC(C)NC(=O)c1cc(N(C)C)cc(Oc2cccc(C(F)(F)F)c2)n1 [Compound I-57, N-(i-propyl)-4-dimethylamino-6-{3-(trifluoromethyl)phenoxy}-2-pyridine carboxamide] | 4 (percentage of weeds killed was not less than 60% and less than 80%) | 4 (percentage of weeds killed was not less than 60% and less than 80%) | 5 (percentage of weeds killed was not less than 80%) | 5 (percentage of weeds killed was not less than 80%) | 5 (percentage of weeds killed was not less than 80%) | 5 (percentage of weeds killed was not less than 80%) | 5 (percentage of weeds killed was not less than 80%) | 5 (percentage of weeds killed was not less than 80%) | 3 (percentage of weeds killed was not less than 40% and less than 60%) | 5 (percentage of weeds killed was not less than 80%) | 4 (percentage of weeds killed was not less than 60% and less than 80%)
COc1cc(Oc2cccc(C(F)(F)F)c2)nc(C(=O)NCCSCCF)c1 [Compound I-92, N-{2-(2-fluoroethylmercapto)ethyl}-4-methoxy-6-{3-(trifluoromethyl)phenoxy}-2-pyridine carboxamide] | 3 (percentage of weeds killed was not less than 40% and less than 60%) | 4 (percentage of weeds killed was not less than 60% and less than 80%) | 5 (percentage of weeds killed was not less than 80%) | 5 (percentage of weeds killed was not less than 80%) | 5 (percentage of weeds killed was not less than 80%) | 5 (percentage of weeds killed was not less than 80%) | 5 (percentage of weeds killed was not less than 80%) | 4 (percentage of weeds killed was not less than 60% and less than 80%) | 3 (percentage of weeds killed was not less than 40% and less than 60%) | 5 (percentage of weeds killed was not less than 80%) | 4 (percentage of weeds killed was not less than 60% and less than 80%)
COc1cc(Oc2cccc(C(F)(F)F)c2)nc(C(=O)NCC(C)C)c1 [Compound I-72] | 4 (percentage of weeds killed was not less than 60% and less than 80%) | 5 (percentage of weeds killed was not less than 80%) | 5 (percentage of weeds killed was not less than 80%) | 5 (percentage of weeds killed was not less than 80%) | 5 (percentage of weeds killed was not less than 80%) | 5 (percentage of weeds killed was not less than 80%) | 5 (percentage of weeds killed was not less than 80%) | 5 (percentage of weeds killed was not less than 80%) | 5 (percentage of weeds killed was not less than 80%) | 5 (percentage of weeds killed was not less than 80%) | 5 (percentage of weeds killed was not less than 80%)
COCCCNC(=O)c1cc(OC)cc(Oc2cccc(C(F)(F)F)c2)n1 [Compound I-75] | 3 (percentage of weeds killed was not less than 40% and less than 60%) | 4 (percentage of weeds killed was not less than 60% and less than 80%) | 5 (percentage of weeds killed was not less than 80%) | 5 (percentage of weeds killed was not less than 80%) | 5 (percentage of weeds killed was not less than 80%) | 5 (percentage of weeds killed was not less than 80%) | 5 (percentage of weeds killed was not less than 80%) | 3 (percentage of weeds killed was not less than 40% and less than 60%) | 4 (percentage of weeds killed was not less than 60% and less than 80%) | 5 (percentage of weeds killed was not less than 80%) | 5 (percentage of weeds killed was not less than 80%)
CCCNC(=S)c1cccc(Oc2cccc(C(F)(F)F)c2)n1 [control (c)] | 3 (percentage of weeds killed was not less than 40% and less than 60%) | 2 (percentage of weeds killed was not less than 20% and less than 40%) | 5 (percentage of weeds killed was not less than 80%) | 2 (percentage of weeds killed was not less than 20% and less than 40%) | 4 (percentage of weeds killed was not less than 60% and less than 80%) | 5 (percentage of weeds killed was not less than 80%) | 4 (percentage of weeds killed was not less than 60% and less than 80%) | 1 (percentage of weeds killed was less than 20%) | 1 (percentage of weeds killed was less than 20%) | 5 (percentage of weeds killed was not less than 80%) | 3 (percentage of weeds killed was not less than 40% and less than 60%)
